Data reported in PubChem BioAssay AID330 (DTP/NCI, 2004).
“And” between values parts separate entries of the source, which are not always exact repeats. Equal entries are not always repeated. Inconclusive results and toxic doses are left out. How the source made its calls: active means survival T/C of 150% or more; inactive means T/C below 125% in these data.

Test system: P388 leukemia ip, CD2F1 mice, survival T/C
Experiment: NCI In Vivo Anticancer Drug Screen. Data for tumor model P388 Leukemia (intraperitoneal) in CD2F1 (CDF1) mice
Conditions: endpoint: median survival time, higher = longer survival
Outline: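 Mice carrying the transplanted tumor received test compound or vehicle. Survival was recorded in each group, and the value is the treated-group measurement divided by that of the vehicle-treated control group.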

[1] = dose: 50.0 mg/kg/injection, schedule: Q01DX005 (ip), vehicle: Klucel (hydroxypropylcellulose) (HPC)
[2] = dose: 100.0 mg/kg/injection, schedule: Q01DX005 (ip), vehicle: Klucel (hydroxypropylcellulose) (HPC)
[3] = dose: 200.0 mg/kg/injection, schedule: Q01DX005 (ip), vehicle: Klucel (hydroxypropylcellulose) (HPC)
[4] = dose: 100.0 mg/kg/injection, schedule: Q01DX001 (ip), vehicle: saline with Tween-80
[5] = dose: 200.0 mg/kg/injection, schedule: Q01DX001 (ip), vehicle: saline with Tween-80
[6] = dose: 400.0 mg/kg/injection, schedule: Q01DX001 (ip), vehicle: saline with Tween-80
[7] = dose: 50.0 mg/kg/injection, schedule: Q01DX009 (ip), vehicle: saline with Tween-80
[8] = dose: 100.0 mg/kg/injection, schedule: Q01DX009 (ip), vehicle: saline with Tween-80
[9] = dose: 25.0 mg/kg/injection, schedule: Q01DX005 (ip), vehicle: saline with Tween-80
[10] = dose: 50.0 mg/kg/injection, schedule: Q01DX005 (ip), vehicle: saline with Tween-80
[11] = dose: 50.0 mg/kg/injection, schedule: Q01DX009 (ip), vehicle: saline
[12] = dose: 100.0 mg/kg/injection, schedule: Q01DX009 (ip), vehicle: saline
[13] = dose: 200.0 mg/kg/injection, schedule: Q01DX009 (ip), vehicle: saline
[14] = dose: 200.0 mg/kg/injection, schedule: Q01DX009 (ip), vehicle: saline with Tween-80
[15] = dose: 400.0 mg/kg/injection, schedule: Q01DX009 (ip), vehicle: saline
[16] = dose: 100.0 mg/kg/injection, schedule: Q04DX003 (ip), vehicle: saline with Tween-80
[17] = dose: 400.0 mg/kg/injection, schedule: Q01DX009 (ip), vehicle: saline with Tween-80

Measured: T/C

COC1CCC(OC2CC(C3(C)CCC4(CC(O)C(C)C(C(C)/C=C(\C)C(=O)C(C)CC(C)C(=O)O)O4)O3)OC3(OC(C4OC(O)(CO)C(C)CC4C)CC3C)C2C)OC1C (stereo unspecified)
inactive: dose: 12.5 micrograms/kg/injection, schedule: Q01DX009 (ip), vehicle: suspension in saline 106 % of control | dose: 25.0 micrograms/kg/injection, schedule: Q01DX009 (ip), vehicle: suspension in saline 108 % of control | dose: 37.5 micrograms/kg/injection, schedule: Q01DX009 (ip), vehicle: suspension in saline 114 % of control | dose: 50.0 micrograms/kg/injection, schedule: Q01DX009 (ip), vehicle: suspension in saline 108 % of control | dose: 75.0 micrograms/kg/injection, schedule: Q01DX009 (ip), vehicle: suspension in saline 109 % of control | dose: 100.0 micrograms/kg/injection, schedule: Q01DX009 (ip), vehicle: suspension in saline 100 % of control | dose: 150.0 micrograms/kg/injection, schedule: Q01DX009 (ip), vehicle: suspension in saline 100 % of control | dose: 200.0 micrograms/kg/injection, schedule: Q01DX009 (ip), vehicle: suspension in saline 107 % of control | dose: 400.0 micrograms/kg/injection, schedule: Q01DX009 (ip), vehicle: suspension in saline 104 % of control

Cc1ncc(CO)c(C=Nc2ccccc2N=Cc2c(CO)cnc(C)c2O)c1O.[Zn]
inactive: [1] 104 % of control | [2] 105 % of control | [3] 101 % of control

Brc1cnc2nc(Cc3ccccc3)[nH]c2c1
inactive: [4] 97 % of control | [5] 113 % of control | [6] 97 % of control

O=c1cccc2c1c1cc[nH]c3ccc(=O)n2c31
inactive: dose: 1.25 mg/kg/injection, schedule: Q01DX009 (ip), vehicle: saline with Tween-80 98 % of control | dose: 2.5 mg/kg/injection, schedule: Q01DX009 (ip), vehicle: saline with Tween-80 107 % of control | dose: 5.0 mg/kg/injection, schedule: Q01DX009 (ip), vehicle: saline with Tween-80 102 % of control

CCCOC(=O)c1nc(N(CC2CCCCC2)C(=O)NC)sc1/N=C/c1ccccc1
inactive: dose: 25.0 mg/kg/injection, schedule: Q01DX009 (ip), vehicle: saline with Tween-80 98 % of control | [7] 94 % of control | [8] 87 % of control

NCCCNCCCNc1nc2nc(N)nc(N)c2nc1-c1ccc([N+](=O)[O-])cc1
inactive: dose: 6.25 mg/kg/injection, schedule: Q01DX005 (ip), vehicle: saline with Tween-80 99 % of control | dose: 12.5 mg/kg/injection, schedule: Q01DX005 (ip), vehicle: saline with Tween-80 101 % of control | [9] 105 % of control | [10] 97 % of control

c1ccc2c(c1)cnc1ccccc12
inactive: [1] 97 % of control | [2] 104 % of control | [3] 104 % of control

O=C(CCCl)Nc1ccc(C(=O)CCc2cccc(NC(=O)CCCl)c2)cc1
inactive: dose: 60.0 mg/kg/injection, schedule: Q01DX005 (ip), vehicle: saline with Tween-80 100 % of control | dose: 120.0 mg/kg/injection, schedule: Q01DX005 (ip), vehicle: saline with Tween-80 97 % of control | dose: 240.0 mg/kg/injection, schedule: Q01DX005 (ip), vehicle: saline with Tween-80 89 % of control

CCC(O)CN(C)Cc1cc2c(c3ccccc13)CCCC2 (stereo unspecified)
inactive: [11] 106 % of control | [12] 108 % of control

COCC(O)C(NC(=O)CCl)C(=O)O (stereo unspecified)
inactive: [11] 110 % of control and 97 % of control | [12] 90 % of control and 98 % of control | [13] 95 % of control

NNC(=O)CC(N)C(=O)O (stereo unspecified)
inactive: dose: 25.0 mg/kg/injection, schedule: Q01DX009 (ip), vehicle: saline 100 % of control | [7] 110 % of control | [11] 105 % of control and 122 % of control | [8] 108 % of control | [12] 109 % of control and 122 % of control | [14] 117 % of control | [13] 116 % of control | [15] 107 % of control

Cc1cccn2c(N=O)cnc12
inactive: [16] 98 % of control

c1ccc2[nH]c(N=Nc3cccc4ccccc34)cc2c1
inactive: dose: 25.0 mg/kg/injection, schedule: Q01DX009 (ip), vehicle: other 93 % of control and 95 % of control | dose: 50.0 mg/kg/injection, schedule: Q01DX009 (ip), vehicle: other 100 % of control | [7] 99 % of control | dose: 100.0 mg/kg/injection, schedule: Q01DX009 (ip), vehicle: other 100 % of control and 94 % of control | [8] 108 % of control and 115 % of control | dose: 200.0 mg/kg/injection, schedule: Q01DX009 (ip), vehicle: other 98 % of control and 100 % of control | [14] 115 % of control | [17] 98 % of control

CCOP(=O)(Nc1cc2c(=O)n(C)cnc2cc1Cl)OCC
inactive: [16] 105 % of control | dose: 200.0 mg/kg/injection, schedule: Q04DX003 (ip), vehicle: saline with Tween-80 100 % of control

C=C(COCNc1ccc(Cl)cc1Cl)C(=O)O
inactive: dose: 50.0 mg/kg/injection, schedule: Q01DX009 (ip), vehicle: Klucel (hydroxypropylcellulose) (HPC) 105 % of control | dose: 100.0 mg/kg/injection, schedule: Q01DX009 (ip), vehicle: Klucel (hydroxypropylcellulose) (HPC) 89 % of control | dose: 200.0 mg/kg/injection, schedule: Q01DX009 (ip), vehicle: Klucel (hydroxypropylcellulose) (HPC) 99 % of control

N=c1c2ncn(C3OC(COP(=O)(O)O)C(O)C3O)c2ncn1O (stereo unspecified)
inactive: [11] 97 % of control | [12] 97 % of control | [13] 95 % of control | [15] 97 % of control

Cc1ccc(S(=O)(=O)NC(=O)c2ccccc2)cc1
inactive: [8] 100 % of control | [14] 100 % of control | [17] 91 % of control

COC(=O)c1cc(-c2ccncc2)[nH]c(=O)c1C#N
inactive: dose: 60.0 mg/kg/injection, schedule: Q01DX005 (ip), vehicle: saline 101 % of control | dose: 120.0 mg/kg/injection, schedule: Q01DX005 (ip), vehicle: saline 99 % of control | dose: 240.0 mg/kg/injection, schedule: Q01DX005 (ip), vehicle: saline 94 % of control

CCN(CC)CCCC(C)NC1CCCc2cc3c(cc21)C(=O)c1ccccc1C3=O (stereo unspecified)
inactive: dose: 6.25 mg/kg/injection, schedule: Q04DX003 (ip), vehicle: saline with Tween-80 98 % of control | dose: 12.5 mg/kg/injection, schedule: Q04DX003 (ip), vehicle: saline with Tween-80 94 % of control | dose: 25.0 mg/kg/injection, schedule: Q04DX003 (ip), vehicle: saline with Tween-80 90 % of control

CCOC(=O)C(N=Nc1ccc(Br)cc1C)C(C)=O (stereo unspecified)
inactive: [9] 98 % of control | [10] 99 % of control | dose: 100.0 mg/kg/injection, schedule: Q01DX005 (ip), vehicle: saline with Tween-80 98 % of control | dose: 200.0 mg/kg/injection, schedule: Q01DX005 (ip), vehicle: saline with Tween-80 89 % of control

Cc1ccc(-c2nc(N)[nH]c2-c2ccc(C)cc2)cc1
inactive: dose: 5.0 mg/kg/injection, schedule: Q04DX002 (ip), vehicle: saline with Tween-80 104 % of control | dose: 10.0 mg/kg/injection, schedule: Q04DX002 (ip), vehicle: saline with Tween-80 100 % of control | dose: 20.0 mg/kg/injection, schedule: Q04DX002 (ip), vehicle: saline with Tween-80 99 % of control

Nc1nc2c(cnn2C2CCCO2)c(=O)[nH]1 (stereo unspecified)
inactive: [4] 100 % of control | [5] 106 % of control | [6] 96 % of control
